Measurements published in patent US6582717B1, “Drug delivery composition and device” (Massachusetts Institute of Technology, priority 2000, dated 2003).

Assay: Encapsulation efficiency of drug in PLGA / cyclodextrin delivery matrix
Assay type: physicochemical
[1] = PLGA and Hydroxy-propyl β-Cyclodextrin
[2] = PLGA and Methylated β-Cyclodextrin

Encapsulation Efficiency (%) (PGLA, no cyclodextrin) | Encapsulation Efficiency (amount encapsulated) (PGLA, no cyclodextrin) [µg] | Encapsulation Efficiency (%) [1] | Encapsulation Efficiency (amount encapsulated) [1] [µg] | Encapsulation Efficiency (%) [2] | Encapsulation Efficiency (amount encapsulated) [2] [µg] | SMILES
(10.2%) | 204.7 | (6.1%) | 121.2 | (11.5%) | 230.3 | N=C(NCCCCCCNC(=N)NC(=N)Nc1ccc(Cl)cc1)NC(=N)Nc1ccc(Cl)cc1.O=C(O)[C@H](O)[C@@H](O)[C@H](O)[C@H](O)CO.O=C(O)[C@H](O)[C@@H](O)[C@H](O)[C@H](O)CO [ChxDg, chlorhexidine digluconate]
(9.28%) | 185.7 | (15.1%) | 302.8 | (9.02%) | 180.5 | [H]/N=C(\N/C(=N/[H])NCCCCCCNC(=N)NC(=N)Nc1ccc(Cl)cc1)Nc1ccc(Cl)cc1 [Chx, chlorhexidine]
